Measured values from US20240384268A1, “Oligonucleotides” (Hudson Institute of Medical Research, priority 2021, published 2024).
In the oligonucleotide strings, read from the 5' end, every base follows the letter of its sugar. An asterisk marks phosphorothioate; unmarked linkages are phosphodiester. Other units and linkages are bracketed, terminal groups are in braces. A string of capitals states the bases alone. d = 2'-deoxy (DNA); m = 2'-O-methyl

Target: T1, human TLR7 (Homo sapiens, UniProt Q9NYK1)
T1 construct: HA; host or cells: 293XL-hTLR7-HA (HEK293)
T1 sequence (Q9NYK1 27-1049): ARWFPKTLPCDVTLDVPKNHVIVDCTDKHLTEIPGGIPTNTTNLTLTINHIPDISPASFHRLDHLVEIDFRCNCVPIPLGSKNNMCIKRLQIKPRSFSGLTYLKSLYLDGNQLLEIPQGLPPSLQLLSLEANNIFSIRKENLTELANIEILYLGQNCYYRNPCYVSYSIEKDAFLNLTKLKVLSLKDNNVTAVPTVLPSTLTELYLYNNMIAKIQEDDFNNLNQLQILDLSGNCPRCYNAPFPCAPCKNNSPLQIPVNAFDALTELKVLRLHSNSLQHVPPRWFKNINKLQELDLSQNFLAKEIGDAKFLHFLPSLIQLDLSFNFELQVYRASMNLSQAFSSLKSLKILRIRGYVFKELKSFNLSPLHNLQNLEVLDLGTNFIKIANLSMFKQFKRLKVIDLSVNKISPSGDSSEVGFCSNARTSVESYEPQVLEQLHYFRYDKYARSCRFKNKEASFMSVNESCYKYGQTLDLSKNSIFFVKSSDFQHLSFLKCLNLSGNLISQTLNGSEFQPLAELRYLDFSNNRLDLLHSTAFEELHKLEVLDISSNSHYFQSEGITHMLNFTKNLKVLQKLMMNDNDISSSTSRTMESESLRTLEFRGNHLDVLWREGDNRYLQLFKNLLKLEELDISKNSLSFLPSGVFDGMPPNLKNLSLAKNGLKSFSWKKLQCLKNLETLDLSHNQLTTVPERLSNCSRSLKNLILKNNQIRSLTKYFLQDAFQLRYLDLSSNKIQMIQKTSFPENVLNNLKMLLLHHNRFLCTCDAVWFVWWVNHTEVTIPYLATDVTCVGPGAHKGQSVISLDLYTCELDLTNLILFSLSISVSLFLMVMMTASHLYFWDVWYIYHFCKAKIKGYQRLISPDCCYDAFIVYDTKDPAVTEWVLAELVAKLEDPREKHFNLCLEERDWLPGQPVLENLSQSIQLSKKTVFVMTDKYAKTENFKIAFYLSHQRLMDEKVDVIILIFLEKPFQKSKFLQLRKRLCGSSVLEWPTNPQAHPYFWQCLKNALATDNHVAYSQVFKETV
Assay: HEK-TLR7 NF-κB-luciferase reporter, R848 stimulation
Type: cell-based
Conditions: for TLR7 100 nM: MOE-modified ASO at 100 nM; for TLR7 100 nM / TLR7 500 nM: averaged NF-κB-Luciferase relative to R848 condition; for TLR7 500 nM: MOE-modified ASO at 500 nM; for TLR7-100 nM: averaged NF-κB-Luciferase relative to R848: HEK-TLR7, 100 nM ASO, percentage of R848 without ASO (Alharbi et al., 2020)

Substance	TLR7 100 nM	TLR7 500 nM	TLR7-100 nM: averaged NF-κB-Luciferase relative to R848 [%]
AGTCGTAGTTGCTTCCTAAC (antisense; 2'-MOE modified, pattern not given here) [MB21D1-1181 MOE]	0.494	0.228	–
ATGCCATCCACTTGATAGGC (antisense; 2'-MOE modified, pattern not given here) [EGFR-2874 MOE]	0.668	0.390	–
CGGAGGTCTTGGCTTCGTGG (antisense; 2'-MOE modified, pattern not given here) [MB21D1-525 MOE]	0.505	0.138	–
CGGCATCCACCACGTCGTCC (antisense; 2'-MOE modified, pattern not given here) [EGFR-3267 MOE]	0.485	0.202	–
GCCCATCCATGAGGTCCTGG (antisense; 2'-MOE modified, pattern not given here) [CTNN2B-2545 MOE]	0.340	0.124	–
GCTGACAAAGATTCACTGGT (antisense; 2'-MOE modified, pattern not given here) [HPRT-1353 MOE]	0.375	0.190	–
GGGTATCGAAAGAGTCTGGA (antisense; 2'-MOE modified, pattern not given here) [EGFR-3908 MOE]	0.350	0.079	–
GGTTTTGGCTGGGATCAAGT (antisense; 2'-MOE modified, pattern not given here) [CAMSAP1-4697 MOE]	0.346	0.191	–
GTCCAAGATCAGCAGTCTCA (antisense; 2'-MOE modified, pattern not given here) [CTNN2B-2341 MOE]	0.298	0.120	–
TCCGGCCTCGGAAGCTCTCT (antisense; 2'-MOE modified, pattern not given here) [MB21D1-168 MOE]	0.440	0.166	–
TGGCAGGCTCAGTGATGTCT (antisense; 2'-MOE modified, pattern not given here) [CTNN2B-1642 MOE]	0.415	0.167	–
TGGGCTGGAATCCGAGTTAT (antisense; 2'-MOE modified, pattern not given here) [EGFR-4705 MOE]	0.270	0.095	–
TGGGTTACGGCTCAGTATGG (antisense; 2'-MOE modified, pattern not given here) [CAMSAP1-4295 MOE]	0.427	0.167	–
TTTGCACACTTCGTACCCAA (antisense; 2'-MOE modified, pattern not given here) [CAMSAP1-4916 MOE]	0.296	0.118	–
mA*mA*mA*mA*mG*A*T*T*A*T*C*T*T*C*T*mU*mU*mU*mA*mA (AAAAGATTATCTTCTUUUAA; sugars from the 5' end m5 d10 m5, all phosphorothioate, methylation of C not given here) [[CDKN2B-AS1]2133]	–	–	47.41
mA*mA*mA*mA*mU*A*A*G*G*G*G*A*A*T*A*mG*mG*mG*mG*mA (mA*mA*mA*mA*mU*dA*dA*dG*dG*dG*dG*dA*dA*dT*dA*mG*mG*mG*mG*mA; antisense) [[CDKN2B-AS1]79]	–	–	68.45

Substance	TLR7 100 nM	TLR7 500 nM	TLR7-100 nM: averaged NF-κB-Luciferase relative to R848 [%]
mA*mA*mA*mG*mA*T*T*A*T*C*T*T*C*T*T*mU*mU*mA*mA*mU (mA*mA*mA*mG*mA*dT*dT*dA*dT*dC*dT*dT*dC*dT*dT*mU*mU*mA*mA*mU) [[CDKN2B-AS1]2132]	–	–	49.28
mA*mA*mA*mU*mG*T*C*C*T*G*G*C*C*C*T*mC*mA*mC*mU*mG (mA*mA*mA*mU*mG*dT*dC*dC*dT*dG*dG*dC*dC*dC*dT*mC*mA*mC*mU*mG) [[LINC-PINT]148.1]	–	–	46.45
mA*mA*mG*mA*mU*T*A*T*C*T*T*C*T*T*T*mU*mA*mA*mU*mU (mA*mA*mG*mA*mU*dT*dA*dT*dC*dT*dT*dC*dT*dT*dT*mU*mA*mA*mU*mU) [[CDKN2B-AS1]2131]	–	–	42.09
mA*mA*mG*mG*mU*G*G*C*C*A*C*A*G*G*C*mA*mA*mC*mG*mU (mA*mA*mG*mG*mU*dG*dG*dC*dC*dA*dC*dA*dG*dG*dC*mA*mA*mC*mG*mU; antisense) [[CDKN2B-AS1]2198]	–	–	57.85
mA*mA*mU*mA*mU*C*T*G*C*T*G*C*C*C*A*mC*mC*mU*mU*mC (mA*mA*mU*mA*mU*dC*dT*dG*dC*dT*dG*dC*dC*dC*dA*mC*mC*mU*mU*mC; antisense) [[CDKN2B-AS1]832]	–	–	43.66
mA*mA*mU*mU*mU*A*A*A*G*C*A*T*G*A*A*mU*mA*mU*mU*mA (mA*mA*mU*mU*mU*dA*dA*dA*dG*dC*dA*dT*dG*dA*dA*mU*mA*mU*mU*mA) [[CDKN2B-AS1]645]	–	–	46.75
mA*mC*mC*mC*mU*T*C*T*C*T*C*T*G*G*T*mC*mC*mC*mA*mU (mA*mC*mC*mC*mU*dT*dC*dT*dC*dT*dC*dT*dG*dG*dT*mC*mC*mC*mA*mU; antisense) [[LINC-PINT]115]	–	–	43.37
mA*mG*mA*mA*mA*G*A*A*G*C*A*A*A*G*A*mU*mU*mC*mA*mA (AGAAAGAAGCAAAGAUUCAA; sugars from the 5' end m5 d10 m5, all phosphorothioate, methylation of C not given here) [[CDKN2B-AS1]1519]	–	–	42.99
mA*mG*mA*mU*mU*A*T*C*T*T*C*T*T*T*T*mA*mA*mU*mU*mU (AGAUUATCTTCTTTTAAUUU; sugars from the 5' end m5 d10 m5, all phosphorothioate, methylation of C not given here) [[CDKN2B-AS1]2130]	–	–	37.10
mA*mG*mC*mC*mG*A*A*C*A*G*A*A*G*G*A*mG*mC*mG*mU*mC (AGCCGAACAGAAGGAGCGUC; sugars from the 5' end m5 d10 m5, all phosphorothioate, methylation of C not given here) [[LINC-PINT]587 KL]	–	–	27.70
mA*mG*mG*mA*mU*T*A*A*A*A*C*A*G*A*T*mU*mA*mA*mU*mA (mA*mG*mG*mA*mU*dT*dA*dA*dA*dA*dC*dA*dG*dA*dT*mU*mA*mA*mU*mA) [[CDKN2B-AS1] 1775]	–	–	36.28
mA*mG*mG*mC*mC*T*C*C*A*G*T*G*T*C*T*mU*mC*mU*mC*mC (mA*mG*mG*mC*mC*dT*dC*dC*dA*dG*dT*dG*dT*dC*dT*mU*mC*mU*mC*mC; antisense) [[CDKN2B-AS1]2218]	–	–	44.73
mA*mU*mA*mU*mC*T*G*C*T*G*C*C*C*A*C*mC*mU*mU*mC*mU (AUAUCTGCTGCCCACCUUCU; antisense; sugars from the 5' end m5 d10 m5, all phosphorothioate, methylation of C not given here) [[CDKN2B-AS1]831]	–	–	47.52
mA*mU*mG*mA*mC*A*T*T*T*C*G*T*G*G*C*mU*mC*mC*mU*mA (mA*mU*mG*mA*mC*dA*dT*dT*dT*dC*dG*dT*dG*dG*dC*mU*mC*mC*mU*mA) [[LINC-PINT]524.1]	–	–	32.53
mC*mA*mA*mG*mC*C*C*C*A*G*C*G*T*T*C*mC*mU*mC*mC*mG (mC*mA*mA*mG*mC*dC*dC*dC*dA*dG*dC*dG*dT*dT*dC*mC*mU*mC*mC*mG; antisense) [[LINC-PINT]83.1]	–	–	45.20
mC*mA*mC*mC*mC*T*T*C*T*C*T*C*T*G*G*mU*mC*mC*mC*mA (CACCCTTCTCTCTGGUCCCA; antisense; sugars from the 5' end m5 d10 m5, all phosphorothioate, methylation of C not given here) [[LINC-PINT]116]	–	–	73.30
